The text below walks through data of ChEMBL document CHEMBL1132854, “Structure-based design of ketone-containing, tripeptidyl human rhinovirus 3C protease inhibitors” (Bioorg Med Chem Lett, 2000).

A word on the CC50: it is the concentration that lowers cell viability or growth by half. A word on the pEC50: it is the negative decadic logarithm of the EC50, by convention in mol/L. Low values mean a high EC50, high ones a low EC50. Usually pKi stands for the Ki on a negative log10 scale, so that one unit is a factor of ten. Read a low pKi as a large Ki.

The subject of test [1] is Human rhinovirus sp. Description: Compound was evaluated for in vitro cytotoxic concentration against HRV serotype-14 (HRV-14). The test is classed as functional.
Test [2] deals with Human rhinovirus sp. Description: Compound was evaluated for in vitro effective concentration against HRV serotype-14 (HRV-14). It counts as functional, organism-based.
The subject of test [3] is Human rhinovirus sp. Description: Compound was evaluated for the inhibition of human rhinovirus 3C protease (3CP); No inhibition. It counts as functional, organism-based.
Test [4] deals with Human rhinovirus sp. Description: Compound was evaluated for the inhibition of human rhinovirus 3C protease (3CP). The test is classed as functional, organism-based.
Test [5] concerns Human rhinovirus sp. Description: Compound was evaluated for in vitro cytotoxic concentration against HRV serotype-14 (HRV-10). It counts as functional.
In test [6] the test system is Human rhinovirus sp. Description: Compound was evaluated for in vitro cytotoxic concentration against HRV serotype-14 (HRV-1A). The test is classed as functional.
Test [7] has as its system Human rhinovirus sp. Description: Compound was evaluated for in vitro effective concentration against HRV serotype-14 (HRV-10). The test is classed as functional, organism-based.
In test [8] the test system is Human rhinovirus sp. Description: Compound was evaluated for in vitro effective concentration against HRV serotype-14 (HRV-1A). The test is classed as functional, organism-based.

Molecules are shown by their SMILES. pEC50, pKi: −log10 of the molar value. Square brackets hold non-standard residues; d marks the D form. Peptide text beside a SMILES is read from it. * marks the point of attachment. Cbz = O=C(OCc1ccccc1)*; Dap = NC[C@H](N)C(=O)O

In the case of `CC(C)C[C@H](NC(=O)OCc1ccccc1)C(=O)N[C@@H](Cc1ccccc1)C(=O)N[C@@H](CCC(N)=O)C(O)c1nc2ccccc2s1` (stereo partly specified), half-maximal cytotoxicity with Human rhinovirus sp. [1] (CC50) was put at 80 µM. In the test with Human rhinovirus sp. [2], this compound gave a pEC50 of 4.49. Further, the Ki result in the test on Human rhinovirus sp. [3] was “Not Active”.

On to `CC(C)C[C@H](NC(=O)OCc1ccccc1)C(=O)N[C@@H](Cc1ccccc1)C(=O)N[C@@H](C[C@@H]1CCNC1=O)C(=O)c1cc2ccccc2s1`, for which the CC50 in the test on Human rhinovirus sp. [1] was over 10 µM. Further, the pEC50 in the test with Human rhinovirus sp. [2] is under 5.00. The pKi in the test on Human rhinovirus sp. [4] is 5.33.

With `Cc1cc(C(=O)N[C@H](C(=O)N[C@@H](Cc2ccc(F)cc2)C(=O)N[C@@H](C[C@@H]2CCNC2=O)C(=O)c2nc3ccccc3s2)C(C)C)no1`, the CC50 in the test with Human rhinovirus sp. [5], in the test with Human rhinovirus sp. [1] and with Human rhinovirus sp. [6] was 250 µM in each case. The pEC50 with Human rhinovirus sp. [7] was 6.60; with Human rhinovirus sp. [2], 6.47; in the test with Human rhinovirus sp. [8] it was 6.47. For the same compound, the pKi with Human rhinovirus sp. [4] was 8.35.

As to `CC(C)C[C@H](NC(=O)OCc1ccccc1)C(=O)N[C@@H](Cc1ccccc1)C(=O)N[C@@H](C[C@@H]1CCNC1=O)C(O)c1nc2ccccc2s1` (stereo partly specified), in the test with Human rhinovirus sp. [1], the CC50 is 63 µM. Moreover, the pEC50 in the test on Human rhinovirus sp. [2] is 5.10. In the test with Human rhinovirus sp. [4], this compound had a pKi of 4.47.

Consider `CC(C)C[C@H](NC(=O)OCc1ccccc1)C(=O)N[C@@H](Cc1ccccc1)C(=O)N[C@@H](C[C@@H]1CCNC1=O)C(=O)c1ccccc1`, for which the CC50 in the test with Human rhinovirus sp. [1] is over 10 µM. In the test on Human rhinovirus sp. [2], the pEC50 was under 5.00. This compound gave a pKi in the test on Human rhinovirus sp. [4] of 5.49.

`CC(=O)NC[C@H](NC(=O)[C@H](Cc1ccccc1)NC(=O)[C@H](CC(C)C)NC(=O)OCc1ccccc1)C(=O)c1nc2ccccc2s1` displayed a half-maximal cytotoxic concentration (CC50) in the test with Human rhinovirus sp. [1] of 25 µM. In the test with Human rhinovirus sp. [2], this compound had a pEC50 of under 4.60. In the test with Human rhinovirus sp. [4], the pKi was 5.77.

In the case of `CC(C)C[C@H](NC(=O)OCc1ccccc1)C(=O)N[C@@H](Cc1ccccc1)C(=O)N[C@@H](CCC(N)=O)C(=O)c1nc2ccccc2s1`, the CC50 in the test with Human rhinovirus sp. [1] is over 100 µM. The compound further had a pEC50 in the test with Human rhinovirus sp. [2] of 4.77. This compound showed a pKi in the test on Human rhinovirus sp. [4] of 5.46.

Take `CC(C)C[C@H](NC(=O)OCc1ccccc1)C(=O)N[C@@H](Cc1ccccc1)C(=O)N[C@@H](C[C@@H]1CCNC1=O)C(=O)c1nccs1`: half-maximal cytotoxicity in the test on Human rhinovirus sp. [1] (CC50) was put at 240 µM. The pEC50 in the test with Human rhinovirus sp. [2] is 5.10. In the test on Human rhinovirus sp. [4], this compound had a negative logarithm of the Ki (pKi) of 6.15.

Turning to `CC(C)C[C@H](NC(=O)OCc1ccccc1)C(=O)N[C@@H](Cc1ccccc1)C(=O)N[C@@H](C[C@@H]1CCNC1=O)C(=O)c1ccccn1`, the midpoint of cytotoxicity in the test on Human rhinovirus sp. [1], the CC50, lay at 200 µM. Also, in the test on Human rhinovirus sp. [2], the pEC50 is 5.40. Also, the pKi in the test on Human rhinovirus sp. [4] was 6.77.

Compound `CC(C)CC(NC(=O)OCc1ccccc1)C(=O)N[C@@H](Cc1ccccc1)C(=O)NC(CC1CCNC1=O)C(=O)c1nc2ccccc2s1` (stereo partly specified) returned a CC50 in the test with Human rhinovirus sp. [1] of over 320 µM. This compound had a pEC50 in the test with Human rhinovirus sp. [2] of 5.49. In the test with Human rhinovirus sp. [4], this compound had a negative-log Ki (pKi) of 7.19.

As to `CC(=O)NC[C@@H](C=O)NC(=O)[C@H](Cc1ccccc1)NC(=O)[C@H](CC(C)C)NC(=O)OCc1ccccc1` (Cbz-Leu-Phe-[Dap](Ac)-aldehyde), the pEC50 in the test with Human rhinovirus sp. [2] was 5.62. Also, the pKi in the test with Human rhinovirus sp. [4] was 8.22.
